Measurements published in ChEMBL document CHEMBL1201862, “PubChem BioAssay data set” (2004).
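Step 1: Grow cells in 96-well plates. Step 2: Expose to compound for 48 hours at 5 concentrations. Step 3: Interpolate endpoints linearly; if unreached, use highest concentration. GI50: concentration for 50% inhibition of growth.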 Active and inactive are the calls of the source. Cut-off read from the data, not from the text of the source: active = GI50 up to about 1.1 µM and inactive = higher.

Tests used:
Test in all cases: inhibition of tumour cell growth, NCI panel, 48 h
786-0 = test system: 786-0
A498 = test system: A498
A549 = test system: A549
ACHN = test system: ACHN
BT-549 = test system: BT-549
CAKI-1 = test system: CAKI-1
CCRF-CEM = test system: CCRF-CEM
COLO 205 = test system: COLO 205
DU-145 = test system: DU-145
EKVX = test system: EKVX
HCT-116 = test system: HCT-116
HCT-15 = test system: HCT-15
HL-60 = test system: HL-60
HOP-62 = test system: HOP-62
HOP-92 = test system: HOP-92
HT-29 = test system: HT-29
Hs-578T = test system: Hs-578T
IGROV-1 = test system: IGROV-1
K562 = test system: K562
KM12 = test system: KM12
LOX IMVI = test system: LOX IMVI
M14 = test system: M14
MCF7 = test system: MCF7
MDA-MB-231 = test system: MDA-MB-231
MDA-MB-435 = test system: MDA-MB-435
MOLT-4 = test system: MOLT-4
Malme-3M = test system: Malme-3M
NCI-H226 = test system: NCI-H226
NCI-H23 = test system: NCI-H23
NCI-H460 = test system: NCI-H460
NCI-H522 = test system: NCI-H522
NCI/ADR-RES = test system: NCI/ADR-RES
OVCAR-3 = test system: OVCAR-3
OVCAR-4 = test system: OVCAR-4
OVCAR-5 = test system: OVCAR-5
OVCAR-8 = test system: OVCAR-8
PC-3 = test system: PC-3
RPMI-8226 = test system: RPMI-8226
RXF 393 = test system: RXF 393
SF-268 = test system: SF-268
SF-295 = test system: SF-295
SF-539 = test system: SF-539
SK-MEL-28 = test system: SK-MEL-28
SK-MEL-2 = test system: SK-MEL-2
SK-MEL-5 = test system: SK-MEL-5
SK-OV-3 = test system: SK-OV-3
SN12C = test system: SN12C
SNB-19 = test system: SNB-19
SNB-75 = test system: SNB-75
SR = test system: SR
SW-620 = test system: SW-620
T47D = test system: T47D
TK-10 = test system: TK-10
U-251 = test system: U-251
UACC-257 = test system: UACC-257
UACC-62 = test system: UACC-62
UO-31 = test system: UO-31
HCC 2998 = test system: HCC 2998
MDA-N = test system: MDA-N

SMILES: Nc1nc2c(ncn2Cc2ccc(CO)cc2)c(=O)[nH]1
- GI50 (786-0): > 100 µM (inactive)
- GI50 (A498): > 100 µM (inactive)
- GI50 (A549): > 100 µM (inactive)
- GI50 (ACHN): > 100 µM (inactive)
- GI50 (BT-549): > 100 µM (inactive)
- GI50 (CAKI-1): > 100 µM (inactive)
- GI50 (CCRF-CEM): > 100 µM (inactive)
- GI50 (COLO 205): > 100 µM (inactive)
- GI50 (DU-145): > 100 µM (inactive)
- GI50 (EKVX): > 100 µM (inactive)
- GI50 (HCT-116): > 100 µM (inactive)
- GI50 (HCT-15): > 100 µM
- GI50 (HL-60): 4.42 µM (inactive)
- GI50 (HOP-62): > 100 µM (inactive)
- GI50 (HOP-92): > 100 µM (inactive)
- GI50 (HT-29): > 100 µM (inactive)
- GI50 (Hs-578T): > 100 µM (inactive)
- GI50 (IGROV-1): > 100 µM (inactive)
- GI50 (K562): > 100 µM (inactive)
- GI50 (KM12): > 100 µM (inactive)
- GI50 (LOX IMVI): > 100 µM (inactive)
- GI50 (M14): > 100 µM (inactive)
- GI50 (MCF7): > 100 µM (inactive)
- GI50 (MDA-MB-231): > 100 µM (inactive)
- GI50 (MDA-MB-435): > 100 µM (inactive)
- GI50 (MOLT-4): > 100 µM (inactive)
- GI50 (Malme-3M): > 100 µM (inactive)
- GI50 (NCI-H226): > 100 µM (inactive)
- GI50 (NCI-H23): > 100 µM (inactive)
- GI50 (NCI-H460): > 100 µM (inactive)
- GI50 (NCI-H522): > 100 µM (inactive)
- GI50 (NCI/ADR-RES): > 100 µM (inactive)
- GI50 (OVCAR-3): > 100 µM (inactive)
- GI50 (OVCAR-4): > 100 µM (inactive)
- GI50 (OVCAR-5): > 100 µM (inactive)
- GI50 (OVCAR-8): > 100 µM (inactive)
- GI50 (PC-3): > 100 µM (inactive)
- GI50 (RPMI-8226): > 100 µM (inactive)
- GI50 (RXF 393): > 100 µM (inactive)
- GI50 (SF-268): > 100 µM (inactive)
- GI50 (SF-295): > 100 µM (inactive)
- GI50 (SF-539): > 100 µM (inactive)
- GI50 (SK-MEL-28): > 100 µM (inactive)
- GI50 (SK-MEL-2): > 100 µM (inactive)
- GI50 (SK-MEL-5): > 100 µM (inactive)
- GI50 (SK-OV-3): > 100 µM (inactive)
- GI50 (SN12C): > 100 µM (inactive)
- GI50 (SNB-19): > 100 µM (inactive)
- GI50 (SNB-75): > 100 µM (inactive)
- GI50 (SR): 95.5 µM (inactive)
- GI50 (SW-620): > 100 µM (inactive)
- GI50 (T47D): > 100 µM (inactive)
- GI50 (TK-10): > 100 µM (inactive)
- GI50 (U-251): > 100 µM (inactive)
- GI50 (UACC-257): > 100 µM (inactive)
- GI50 (UACC-62): > 100 µM (inactive)
- GI50 (UO-31): > 100 µM (inactive)

SMILES: C=C1c2c(n(S(=O)(=O)c3ccccc3)c3ccccc23)[C@@]2(C(=O)OC)CC3C=CC2N1C3
- GI50 (786-0): > 100 µM (inactive)
- GI50 (A549): > 100 µM (inactive)
- GI50 (ACHN): > 100 µM (inactive)
- GI50 (BT-549): > 100 µM (inactive)
- GI50 (CAKI-1): > 100 µM (inactive)
- GI50 (CCRF-CEM): > 100 µM (inactive)
- GI50 (COLO 205): > 100 µM (inactive)
- GI50 (DU-145): > 100 µM (inactive)
- GI50 (EKVX): > 100 µM (inactive)
- GI50 (HCC 2998): > 100 µM (inactive)
- GI50 (HCT-116): > 100 µM (inactive)
- GI50 (HCT-15): > 100 µM
- GI50 (HL-60): 8.09 µM (inactive)
- GI50 (HOP-62): > 100 µM (inactive)
- GI50 (HOP-92): > 100 µM (inactive)
- GI50 (HT-29): > 100 µM (inactive)
- GI50 (IGROV-1): > 100 µM (inactive)
- GI50 (K562): > 100 µM (inactive)
- GI50 (KM12): > 100 µM (inactive)
- GI50 (LOX IMVI): > 100 µM (inactive)
- GI50 (M14): > 100 µM (inactive)
- GI50 (MCF7): > 100 µM (inactive)
- GI50 (MDA-MB-231): > 100 µM (inactive)
- GI50 (MDA-MB-435): > 100 µM (inactive)
- GI50 (MDA-N): > 100 µM (inactive)
- GI50 (MOLT-4): > 100 µM (inactive)
- GI50 (Malme-3M): > 100 µM (inactive)
- GI50 (NCI-H226): > 100 µM (inactive)
- GI50 (NCI-H23): > 100 µM (inactive)
- GI50 (NCI-H460): > 100 µM (inactive)
- GI50 (NCI-H522): > 100 µM (inactive)
- GI50 (NCI/ADR-RES): > 100 µM (inactive)
- GI50 (OVCAR-3): > 100 µM (inactive)
- GI50 (OVCAR-4): > 100 µM (inactive)
- GI50 (OVCAR-5): > 100 µM (inactive)
- GI50 (OVCAR-8): > 100 µM (inactive)
- GI50 (PC-3): > 100 µM (inactive)
- GI50 (RPMI-8226): 41.3 µM (inactive)
- GI50 (RXF 393): > 100 µM (inactive)
- GI50 (SF-268): > 100 µM (inactive)
- GI50 (SF-295): > 100 µM (inactive)
- GI50 (SF-539): > 100 µM (inactive)
- GI50 (SK-MEL-28): > 100 µM (inactive)
- GI50 (SK-MEL-2): > 100 µM (inactive)
- GI50 (SK-OV-3): > 100 µM (inactive)
- GI50 (SN12C): > 100 µM (inactive)
- GI50 (SNB-19): > 100 µM (inactive)
- GI50 (SNB-75): > 100 µM (inactive)
- GI50 (SW-620): > 100 µM (inactive)
- GI50 (T47D): > 100 µM (inactive)
- GI50 (TK-10): > 100 µM (inactive)
- GI50 (U-251): > 100 µM (inactive)
- GI50 (UACC-257): > 100 µM (inactive)
- GI50 (UACC-62): > 100 µM (inactive)
